Laboratory results as given in patent US10836769B2, “Substituted pyrrolizine compounds and uses thereof” (Gilead Sciences, Inc., priority 2018, dated 2020).
≈ marks a conversion by molar mass, not a printed value. Read-outs that look alike come from different tables or passages of the source.

What was measured:
[1] = test system: HBV; assay: HBV DNA Quantification Assay; format: cell-based; conditions: Hepatitis B virus, 120 h; HepG2 cell line overexpressing NTCP infected with HBV AD38 viral particles; HBV DNA in culture supernatant after 5 days; geometric mean of a minimum of four determinations; read-out: EC50
Method in brief: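 NTCP-overexpressing HepG2 cells were infected with AD38 virus at 4000 genome equivalents/cell for 4 days, then reseeded with serially diluted compound in 2% FBS/1% DMSO medium for 5 days. Supernatant HBV DNA was measured by QuantiGene 2.0 branched-DNA luminescence. EC50 came from four-parameter fits, as geometric means of ≥4 determinations.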

[2] = Kinetic Solubility; format: physicochemical; conditions: kinetic from dmso stock, 0.2 to 100 μM, BD Gentest Solubility Scanner
Procedure: The 10 mM DMSO stock solution of the test compound is serially diluted into a 96-well “DMSO stock dilution plate”. Then Pipette 2 μL from the DMSO stock dilution plate into the “Sample plate” and dilute with 198 µL of the assay media to generate the final concentrations of the test compound ranging from 0.2 to 100 μM. The “Sample plate” is run on a BD Gentest Solubility Scanner.

[3] = aqueous buffer, pH = 7, read-out: Kinetic Solubility at pH = 7
[4] = simulated gastric fluid, pH = 1, read-out: Kinetic Solubility at pH = 1

SMILES | EC50 [1] | solubility kinetic [2, 3] | solubility kinetic [2, 4]
Cc1c(C(=O)Nc2ccc(F)c(F)c2)c2n(c1C(=O)C(=O)NC1(c3cnn[nH]3)CC(F)(F)C1)[C@H]1C[C@H]1C2 [Example 23, (1aS,6aS)-3-(2-((3,3-difluoro-1-(1H-1,2,3-triazol-5-yl)cyclobutyl)amino)-2-oxoacetyl)-N-(3,4-difluorophenyl)-4-methyl-1,1a,6,6a-tetrahydrocyclopropa[a]pyrrolizine-5-carboxamide] | 31.8 nM | 49.4 µM (≈ 25.5 µg/mL) | 62 µM (≈ 32 µg/mL)
CNC(=O)C1(NC(=O)C(=O)c2c(C)c(C(=O)Nc3ccc(F)c(F)c3)c3n2C[C@@H]2C[C@H]32)CC(F)(F)C1 [Example 22, (1aR,6bS)-4-(2-((3,3-difluoro-1-(methylcarbamoyl)cyclobutyl)amino)-2-oxoacetyl)-N-(3,4-difluorophenyl)-5-methyl-1,1a,2,6b-tetrahydrocyclopropa[a]pyrrolizine-6-carboxamide] | 31.5 nM | > 100 µM | > 100 µM
CNC(=O)C1(NC(=O)C(=O)c2c(C)c(C(=O)Nc3ccc(F)c(C(F)F)c3)c3n2CCC3)CC(F)(F)C1 [Example 41] | 20.8 nM | > 100 µM | > 100 µM
Cc1c(C(=O)Nc2ccc(F)c(F)c2)c2n(c1C(=O)C(=O)NC1(c3c[nH]nn3)CC(F)(F)C1)CCC2 [Example 39] | 2.9 nM | 66.8 µM (≈ 33.7 µg/mL) | 66 µM (≈ 33.3 µg/mL)
Cc1c(C(=O)Nc2cc(F)c(F)c(F)c2)c2n(c1C(=O)C(=O)NC1(c3cnn[nH]3)CC(F)(F)C1)CCC2 [Example 18] | 2.4 nM | 52.7 µM (≈ 27.5 µg/mL) | 50 µM (≈ 26.1 µg/mL)
